In US20230220047A1, “PEPTIDES FOR TREATMENT OF SEPSIS AND CANCER” (NORWEGIAN UNIVERSITY OF SCIENCE AND TECHNOLOGY (NTNU), priority 2020, published 2023):

Legend:
[1] = tested on: TLR4; test: Cytokine expression in primary human monocytes stimulated by LPS or E. coli particles; format: cell-based
Description: Use of human monocytes from blood donors was approved by the Regional Committees for Medical and Health Research Ethics at the Norwegian University of Science and Technology (NTNU). Human monocytes were isolated from buffy coats by adherence as previously described (Husebye et al., Immunity 33: 583-596, 2010). Briefly, freshly prepared buffy coat (The Blood Bank, St. Olav's Hospital, Trondheim, Norway) was diluted in 100 ml PBS, and PBMCs isolated by density gradient centrifugation using Lymphoprep (Axis-Shield) according to the manufacturer's instructions. […] Cells were counted using a Z2 Coulter Particle Count and Size Analyzer (Beckman Coulter) on program B, re-suspended in RPM11640 (Sigma) supplemented with 5% pooled human serum at a concentration of 8×10^6 per ml and seeded into 6-well (1 ml per well) or 24-well (0.5 ml per well) cell culture dishes. […] Total RNA was isolated from the cells using Qiazol reagent #79306 from QIAGEN, and chloroform extraction followed by purification on RNeasy Mini columns with DNAse digestion (Qiagen). cDNA was prepared using the Maxima First Strand cDNA Synthesis Kit for quantitative real-time polymerase chain reaction (RT-qPCR) (Thermo Fisher Scientific) according to the manufacturer's protocol. qPCR was performed using the PerfeCTa qPCR FastMix (Quanta Biosciences) in replicates and cycled in a StepOnePlusTM Real-Time PCR cycler. […]

[2] = tested on: TLR7; test: qPCR of R837-induced TLR7-mediated cytokine expression in human monocytes; format: cell-based; conditions: 15 μM, R837 1 μg/ml
Description: Cells were pre-treated with 15 μM peptides for 30 min, followed by the addition of LPS (100 ng/ml) (A), R837 (1 μg/ml) (B) or CL075 (1 μg/ml) for increasing lengths of time.
As previously shown, P7-Pen inhibits TLR8-mediated IFNβ expression in human monocytes, without significant effect on the expression of pro-inflammatory cytokines. Human cells express one more endosomal RNA sensor in addition to TLR8: TLR7, which uses similar signaling pathways to induce cytokine expression as the TLR8 receptor. To investigate the effect of P7-Pen on TLR7-mediated signaling, human monocytes were stimulated with imiquimod (R837), an imidazoquinoline amine analog to guanosine, which activates only TLR7, not TLR8 (Lee et al., PNAS 100(11): 6646-6651 (2003)). […] TNF and IL-1β expression were not induced in monocytes by the R837 TLR7 agonist even in control treated cells (FIG. 18C).

[3] = tested on: SW480 cells; test: Proliferation of SW480 colon cancer cells; format: cell-based, human; conditions: 15 μM, 48 h, with or without LPS 100 ng/ml
Description: SW480 cells were seeded and incubated in medium alone or supplemented with water, 15 μM penetratin, 15 μM P7-Pen or 15 μM P7-N4-Pen. Under each condition cells were incubated both without LPS and with 100 ng/ml LPS. Cells were incubated for 48 hours then counted. […] The presence of LPS made no difference to the effect of the peptides on proliferation. Results are based on 3 biological replicates, error bars show standard deviation of mean.
SW480 (ATCC CCL-228) and Jurkat (ATCC Clone E6-1; TIB-152) cells were cultured in RPMI 1640 (Sigma-Aldrich, Schnelldorf, Germany) supplemented with 10% heat-inactivated FCS, penicillin/streptomycin (Life Technologies) and 20 mM L-Glutamine. THP-1 cells (ATCC TIB-202) were cultured in RPMI-1640 (high-glucose, ATCC) supplemented with 10% heat inactivated foetal calf serum (FCS), 100 nM penicillin/streptomycin and 5 μM β-mercaptoethanol (Sigma). THP-1 cells were differentiated with 60 ng/ml phorbol 12-myristate 13-acetate (PMA, Sigma) for 72 h, followed by 24 or 48 h in medium without PMA.
The peptides were tested against the SW480 cell line in the presence and absence of LPS.

Q: Which “IFNβ, TNF, IL-1β and IL-6 expression in response to TLR4 stimulation” value ([1]; 15 μM, 30 min pre-treatment, LPS 100 ng/ml, all tested donors) does the source give for “Ac-ITVYASVTLTGRQIKIWFQNRRMKWKK-NH2 [Peptide P7-Pen]” here?
A: Its value is “significantly decreased”.

Q: What about the “reducing cytokine secretion by monocytes stimulated by E. coli particles” value ([1]; P7-Pen 15 μM vs P7-Arg11 10 μM) of the same substance?
A: Its value is “more effective than P7-Arg11”.

Q: What about the “TLR7-mediated IFNβ mRNA expression” value [2] of the same substance?
A: The value was “inhibits”.

Q: What about the “TLR7-mediated IL-6 expression” value [2] of the same substance?
A: Its value is “delayed activation”.

Q: What about the “effect on proliferation of SW480 cells” value [3] of the same substance?
A: The value was “a degree of anti-proliferative effect”.
